28 compounds from US7223759B2, “Antibacterial 3,5-diaminopiperidine-substituted aromatic and heteroaromatic compounds” (Anadys Pharmaceuticals, Inc., priority 2003, dated 2007) can be followed below.

A value given as a limit tells only on which side of the number the result lay.

The MIC is the lowest concentration that inhibits growth of the organism.

For one test, the system named is Escherichia coli (ATCC25922) or Staphylococcus aureus (ATCC25923). In words: Antibacterial MIC, microdilution method in Mueller-Hinton medium. The class given is cell-based. As to conditions: Escherichia coli, 18 h, MIC in E. coli or S. aureus; two-fold serial dilutions 64 to 0.5 μg/ml in duplicate; 18 hours of incubation at 35° C.; read-out: Potency (MIC). Put shortly: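 Two-fold serial dilutions from 64 to 0.5 μg/ml, in duplicate, by broth microdilution in Mueller-Hinton medium (NCCLS M7-A5). MIC taken as the lowest concentration preventing visible growth after 18 h at 35° C.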
For orientation: Dilution methods test growth across graded concentrations, often in twofold steps.
In the case of `N[C@@H]1C[C@H](N)CN(c2nc(Nc3ccc(NC(=O)c4ccc(N5Cc6ccccc6C5)cc4O)cc3)nc(N3C[C@H](N)C[C@H](N)C3)n2)C1` [N-{4-[4-(1,3-dihydro-isoindol-2-yl)-2-hydroxy-benzoylamino]-phenyl}-4,6-Bis-((3R,5S)-3,5-diamino-piperidin-1-yl)-[1,3,5]triazine-2-amine], the MIC was < 16 µg/mL.
The same measure, in the same setting: next, `COc1cc(Nc2nc(N3CCCCC3)nc(N3CCCCC3)n2)ccc1NC(=O)c1ccc(Cl)cc1O.Cl` [N-[4-(4-chlorro-2-hydroxy-benzoylamino)-3-methoxy-phenyl]-4,6-Bis-((3R,5S)-3,5-diamino-piperidin-1-yl)-[1,3,5]triazine-2-amine]: < 16 µg/mL.
Turning to `N[C@@H]1C[C@H](N)CN(c2nc(N3CCC(n4c(=O)[nH]c5ccccc54)CC3)nc(N3C[C@H](N)C[C@H](N)C3)n2)C1` [8-(4,6-Bis-((3R,5S)-3,5-0diamino-piperidin-1-yl)-[1,3,5]triazin-2-yl)-1-phenyl-1,3,8-triaza-spiro[4.5]decan-4-one], the MIC is > 64 µg/mL.
On to `COc1ccc(NC(=O)c2ccc(Cl)cc2O)c(Nc2nc(N3CCCCC3)nc(N3CCCCC3)n2)c1.Cl` [BN-[2-(4-chloro-2-hydroxy-benzoylamino)-5-methoxy-phenyl]-4,6-Bis-((3R,5S)-3,5-diamino-piperidin-1-yl)-[1,3,5]triazine-2-amine], for which the MIC is > 64 µg/mL.
In the case of `N[C@@H]1C[C@H](N)CN(c2nc(Nc3ccc(NC(=O)Cc4ccccc4)c(O)c3)nc(N3C[C@H](N)C[C@H](N)C3)n2)C1` [N-(3-hydroxy-4-phenylacetylamino-phenyl)-4,6-Bis-((3R,5S)-3,5-diamino-piperidin-1-yl)-[1,3,5]triazine-2-amine], the MIC is < 64 µg/mL.
Consider `O=C(Nc1ccccc1)c1ccccc1Nc1nc(N2CCCCC2)nc(N2CCCCC2)n1` [N-(2-phenylcarbamoyl-phenyl)-44,6-Bis-((3R,5S)-3,5-diamino-piperidin-1-yl)-[1,3,5]triazine-2-amine], for which the MIC is > 64 µg/mL.
On to `N=C(N)Nc1ccc(Nc2nc(N3CCCCC3)nc(N3CCCCC3)n2)cc1` [N-(4-quanidino-phenyl)-4,6-Bis-((3R,5S)-3,5-diamino-piperidin-1-yl)-[1,3,5]triazine-2-amine], for which the minimum inhibitory concentration (MIC) is < 64 µg/mL.
Take `Cl.O=C(CC(=O)c1ccc(Nc2nc(N3CCCCC3)nc(N3CCCCC3)n2)cc1)Nc1ccccc1Cl` [N-(2-Chloro-phenyl)-3-{4-[4-(3S,5R)-3,5-diamino-piperidin-1-yl)-6-((R)-3-hydroxy-piperidin-1-yl)-[1,3,5]triazin-2-ylamino]-phenyl}-3-oxo-propionamide]: the MIC is < 64 µg/mL.
`Cl.N[C@@H]1C[C@H](N)CN(c2nc(Nc3ccccc3)nc(N3C[C@H](N)C[C@H](N)C3)n2)C1` [N-phenyl-44,6-Bis-((3R,5S)-3,5-diamino-piperidin-1-yl)-[1,3,5]triazine-2-amine]: the MIC is > 64 µg/mL.

The test is the same for the next values; noted with them: Escherichia coli, 18 h, read-out: Potency (MIC).
Regarding `Cc1ccc(C(=O)Nc2ccc(Nc3nc(N4C[C@H](N)C[C@H](N)C4)nc(N4CC[C@H](O)[C@@H]4CN)n3)cc2O)cc1` [N-{4-[4-((2S,3S)-2-Aminomethyl-3-hydroxy-pyrrolidin-1-yl)-6-((3R,5S)-3,5-diamino-piperidin-1-yl)-[1,3,5]triazin-2-ylamino]-2-hydroxy-phenyl}-4-methyl-benzamide], the minimal inhibitory concentration (MIC) is < 16 µg/mL.
Still for that read-out and setting: to `COc1nc(Nc2ccc(C(=O)CC(=O)Nc3ccc4c(c3)OC(F)(F)O4)cc2)nc(N2C[C@H](N)C[C@H](N)C2)n1` [3-{4-[4-((3R,5S)-3,5-Diamino-piperidin-1-yl)-6-methoxy-[1,3,5]triazin-2-ylamino]-phenyl}-N-(2,2-difluoro-benzo[1,3]dioxol-5-yl)-3-oxo-propionamide] belongs < 16 µg/mL; to `N[C@@H]1C[C@H](N)CN(c2nc(Nc3ccc(NC(=O)c4cccc([N+](=O)[O-])c4O)cc3)nc(N3C[C@H](N)C[C@H](N)C3)n2)C1` [N-[4-(2-hydroxy-3-nitro-benzoylamino)-phenyl]-4,6-Bis-((3R,5S)-3,5-diamino-piperidin-1-yl)-[1,3,5]triazine-2-amine], > 64 µg/mL; to `NC[C@@H]1C[C@H](CN)CN(c2nc(Nc3ccc(C(=O)Oc4ccccc4)c(O)c3)nc(N3C[C@H](N)C[C@H](N)C3)n2)C1` [4-[4-((3R,5S)-3,5-Bis-(aminomethyl)-piperidin-1-yl)-6-((3R,5S)-3,5-diamino-piperidin-1-yl)-[1,3,5]triazin-2-ylamino]-2-hydroxy-benzoic acid phenyl ester], < 64 µg/mL.
`NC[C@@H]1C[C@H](N)CN1c1nc(Nc2ccc3c(c2)C(=O)c2ccccc2-3)nc(N2C[C@H](N)C[C@H](N)C2)n1` [2-[4-((2S,4S)-4-Amino-2-aminomethyl-pyrrolidin-1-yl)-6-((3R,5S)-3,5-diamino-piperidin-1-yl)-[1,3,5]triazin-2-ylamino]-fluoren-9-one]: the MIC was > 64 µg/mL.
In the case of `N[C@@H]1C[C@H](N)CN(c2nc(Nc3ccc(NC(=O)c4ccc(F)c(F)c4O)c(O)c3)nc(N3C[C@H](N)C[C@H](N)C3)n2)C1` [N-[4-(3,4-difluoro-2-hydroxy-benzoylamino)-3-hydroxy-phenyl]-4,6-Bis-((3R,5S)-3,5-diamino-piperidin-1-yl)-[1,3,5]triazine-2-amine], the minimal inhibitory concentration (MIC) is < 64 µg/mL.
Same read-out and setting: to `N[C@@H]1C[C@H](N)CN(c2nc(Nc3ccc(C(=O)Nc4cccc(Cl)c4)c(O)c3)nc(N3C[C@H](N)C[C@H](N)C3)n2)C1` [N-[4-(3-chloro-phenylcarbamoyl)-3-hydroxy-phenyl]-4,6-Bis-((3R,5S)-3,5-diamino-piperidin-1-yl)-[1,3,5]triazine-2-amine] belongs < 16 µg/mL; to `N[C@@H]1C[C@H](N)CN(c2nc(Nc3ccc(NC(=O)c4ccc(C(F)(F)F)nc4O)c(O)c3)nc(N3C[C@H](N)C[C@H](N)C3)n2)C1` [N-{3-hydroxy-4-[(2-hydroxy-6-trifluoromethyl-pyridine-3-carbonyl)-amino]-phenyl}-4,6-Bis-((3R,5S)-3,5-diamino-piperidin-1-yl)-[1,3,5]triazine-2-amine], < 64 µg/mL; to `COc1nc(Nc2ccc(C(=O)CC(=O)Nc3ccc(F)c(F)c3)cc2)nc(N2C[C@H](N)C[C@H](N)C2)n1` [3-{4-[4-((3R,5S)-3,5-Diamino-piperidin-1-yl)-6-methoxy-[1,3,5]triazin-2-ylamino]-phenyl}-N-(3,4-difluoro-phenyl)-3-oxo-propionamide], < 16 µg/mL.
With `N[C@@H]1C[C@H](N)CN(c2nc(NNc3ccccn3)nc(N3C[C@H](N)C[C@H](N)C3)n2)C1` [N-(4,6-Bis-((3R,5S)-3,5-diamino-piperidin-1-yl)-[1,3,5]triazin-2-yl)-N′-Pyridin-2-yl-hydrazine], the MIC is > 64 µg/mL.
With `Cc1cc(Nc2nc(N3C[C@H](N)C[C@H](N)C3)nc(N3C[C@H](N)C[C@H](N)C3)n2)ccc1NC(=O)c1ccc(Cl)cc1O` [N-[4-(4-chloro-2-hydroxy-benzoylamino)-3-methyl-phenyl]-4,6-Bis-((3R,5S)-3,5-diamino-piperidin-1-yl)-[1,3,5]triazine-2-amine], the MIC was < 16 µg/mL.
For the compound `N[C@@H]1C[C@H](N)CN(c2nc(NNc3ccc(F)cc3)nc(N3C[C@H](N)C[C@H](N)C3)n2)C1` [N-(4,6-Bis-((3R,5S)-3,5-diamino-piperidin-1-yl)-[1,3,5]triazin-2-yl)-N′-(4-Fluoro-phenyl)-hydrazine], the MIC was < 64 µg/mL.
As for `NC[C@@H]1C[C@H](N)CN1c1nc(Nc2ccc(NC(=O)c3ccc(Cl)cc3O)c(O)c2)nc(N2C[C@H](N)C[C@H](N)C2)n1` [N-{4-[4-((2S,4S)-4-Amino-2-aminomethyl-pyrrolidin-1-yl)-6-((3R,5S)-3,5-diamino-piperidin-1-yl)-[1,3,5]triazin-2-ylamino]-2-hydroxy-phenyl}-4-chloro-2-hydroxy-benzamide], the MIC is < 16 µg/mL.
Take `N[C@@H]1C[C@H](N)CN(c2cc(Nc3ccc(NC(=O)c4ccc5ccccc5c4O)cc3)cc(N3C[C@H](N)C[C@H](N)C3)n2)C1` [1-Hydroxy-naphthalene-2-carboxylic acid [4-(2,6-Bis-((3R,5S)-3,5-diamino-piperidin-1-yl)-pyridin-4-ylamino)-phenyl]-amide]: the minimum inhibitory concentration (MIC) is < 16 µg/mL.
As to `N[C@@H]1C[C@H](N)CN(c2nc(Nc3ccc(NC(=O)c4cc(Br)ccc4O)cc3)nc(N3C[C@H](N)C[C@H](N)C3)n2)C1` [N-[4-(5-bromo-2-hydroxy-benzoylamino)-phenyl]-4,6-Bis-((3R,5S)-3,5-diamino-piperidin-1-yl)-[1,3,5]triazine-2-amine], the minimal inhibitory concentration (MIC) was < 16 µg/mL.
For `NC[C@@H]1C[C@H](CN)CN(c2nc(Nc3ccc(S(=O)(=O)Nc4ccc5cn[nH]c5c4)cc3)nc(N3C[C@H](N)C[C@H](N)C3)n2)C1` [4-[4-((3R,5S)-3,5-Bis-(aminomethyl)-piperidin-1-yl)-6-((3R,5S)-3,5-diamino-piperidin-1-yl)-[1,3,5]triazin-2-ylamino]-N-(1H-indazol-6-yl)-benzenesulfonamide], the MIC is > 64 µg/mL.
As for `N[C@@H]1C[C@H](N)CN(c2nc(Nc3ccc(C(=O)Nc4ccc5c(c4)OCO5)c(O)c3)nc(N3C[C@H](N)C[C@H](N)C3)n2)C1` [N-[4-(benzo[1,3]dioxol-5-ylcarbamoyl)-3-hydroxy-phenyl]-4,6-Bis-((3R,5S)-3,5-diamino-piperidin-1-yl)-[1,3,5]triazine-2-amine], the minimum inhibitory concentration (MIC) was < 16 µg/mL.
In the case of `N[C@@H]1C[C@H](N)CN(c2nc(Nc3ccc(C(=O)Nc4cccc(SC(F)(F)F)c4)c(O)c3)nc(N3C[C@H](N)C[C@H](N)C3)n2)C1` [N-[3-hydroxy-4-(3-trifluoromethylsulfanyl-phenylcarbamoyl)-phenyl]-4,6-Bis-((3R,5S)-3,5-diamino-piperidin-1-yl)-[1,3,5]triazine-2-amine], the minimum inhibitory concentration (MIC) is < 16 µg/mL.

The same test, now with this note: MIC in E. coli or S. aureus; two-fold serial dilutions 64 to 0.5 μg/ml in duplicate; 18 hours of incubation at 35° C.
On to “N-(4-thioureido-iminomethyl-phenyl)-4,6-Bis-((3R,5S)-3,5-diamino-piperidin-1-yl)-[1,3,5]triazine-2-amine”, for which the “Potency (MIC)” value is given as “+ (+ means MIC<64 μg/ml in E. coli or S. aureus)”.
